{
  "source": "patent US12419873B2",
  "about": "“Use of JAK inhibitors in preparation of drugs for treating JAK kinase-related diseases” (ZHUHAI UNITED LABORATORIES CO., LTD., priority 2020, dated 2025)",
  "key": {"[1]": {"system": "DNCB induced allergic dermatitis in mice", "test": "In vivo pharmacodynamic study on DNCB induced allergic dermatitis (AD) in mice", "experimental": "The animal allergic dermatitis model induced by 1-chloro-2,4-dinitrobenzene (DNCB) is basically consistent with the clinical manifestations of AD patients.\nPreparation method of solvent: vehicle solution is 30% PEG-400+70% (5% HP-β-CD), pH 4-5. Firstly, 35 g HP-β-CD was dissolved in 700 mL MilliQ pure water, 300 mL PEG-400 was added and mixed well, the pH was adjusted to 4-5, and stored at room temperature.\nPreparation method of compounds: the compounds were weighed and added to 30% PEG-400+ 70% (5% HP-β-CD) solution (by volume), and ultrasonically processed. After the solution was fully mixed, it is load into glass bottles and stored in a 4° C. refrigerator.\nSeventy male Balb/c mice were weighed and randomly divided into 7 groups with 10 mice in each group.\nThe animal adaptation period was 3 days. It was adapted to shaving on the back. After 2 days, it was sensitized with the modeling solution, coated with 20 μL 0.5% DNCB solution on the right ear of the mouse, applied with 200 μL 0.5% DNCB solution on the back, once a day for 3 days. The mice were stimulated from day 4, and applied with 10 μL 1% DNCB solution on the right ear of mice, 100 μL 1% DNCB solution on the back of mice, respectively, once every 3 days.\nOn days 3, 9, 15, 21, and 27, the severity of specific dermatitis was evaluated by evaluating four clinical inflammatory indicators of atopic dermatitis: Erythema/bleeding, scar/dryness, edema, and infiltration/erosion. Each evaluation index has four grades: 0, none; 1. slight; 2. moderate; 3. obvious; 4. very obvious. Sum the scores represents score of the skin. […] The spleen was taken and the spleen index was calculated: spleen index=spleen weight (mg)/body weight (g).\nThe experimental data were expressed by means±standard error (Mean±SEM), and all data were statistically analyzed by one-way ANOVA, with P<0.05 as the statistical difference."}, "[2]": {"biological_target": "TYK2 (Homo sapiens (Human), UniProt P29597)", "sequence (P29597 whole entry)": "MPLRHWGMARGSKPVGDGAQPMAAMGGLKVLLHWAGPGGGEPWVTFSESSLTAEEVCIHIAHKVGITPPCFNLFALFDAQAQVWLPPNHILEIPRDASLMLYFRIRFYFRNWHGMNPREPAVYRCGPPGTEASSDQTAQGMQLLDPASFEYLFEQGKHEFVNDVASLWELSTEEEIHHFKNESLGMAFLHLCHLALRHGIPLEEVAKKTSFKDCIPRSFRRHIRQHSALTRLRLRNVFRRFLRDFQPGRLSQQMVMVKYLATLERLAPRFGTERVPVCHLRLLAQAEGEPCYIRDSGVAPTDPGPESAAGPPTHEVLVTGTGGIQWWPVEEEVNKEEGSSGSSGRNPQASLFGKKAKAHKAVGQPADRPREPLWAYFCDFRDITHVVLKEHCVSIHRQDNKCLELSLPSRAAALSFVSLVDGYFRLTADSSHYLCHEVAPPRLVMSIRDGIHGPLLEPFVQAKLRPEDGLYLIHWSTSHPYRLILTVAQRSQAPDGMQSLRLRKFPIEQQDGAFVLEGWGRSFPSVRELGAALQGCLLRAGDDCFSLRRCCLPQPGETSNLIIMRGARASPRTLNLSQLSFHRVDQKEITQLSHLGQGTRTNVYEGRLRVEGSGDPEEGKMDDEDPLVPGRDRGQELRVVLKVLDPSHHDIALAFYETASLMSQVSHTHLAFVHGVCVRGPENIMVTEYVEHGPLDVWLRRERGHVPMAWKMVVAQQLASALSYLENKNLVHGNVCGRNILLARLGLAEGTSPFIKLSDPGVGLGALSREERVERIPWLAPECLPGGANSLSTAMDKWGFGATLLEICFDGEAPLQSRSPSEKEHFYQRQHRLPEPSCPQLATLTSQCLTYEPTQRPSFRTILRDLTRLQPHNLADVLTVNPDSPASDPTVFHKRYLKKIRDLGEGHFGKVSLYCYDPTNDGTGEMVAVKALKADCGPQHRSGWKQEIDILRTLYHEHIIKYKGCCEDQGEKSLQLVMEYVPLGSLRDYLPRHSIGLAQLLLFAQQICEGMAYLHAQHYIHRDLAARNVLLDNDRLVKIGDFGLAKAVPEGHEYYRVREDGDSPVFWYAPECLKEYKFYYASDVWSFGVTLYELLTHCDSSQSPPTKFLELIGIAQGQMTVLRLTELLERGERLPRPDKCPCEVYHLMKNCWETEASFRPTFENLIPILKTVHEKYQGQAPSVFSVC", "test": "In vitro activity test of TYK2 kinase", "type": "biochemical", "description": "(§1) Recombinant human JAK1, JAK2, JAK3, TyK2 protease, main instruments and reagents were provided by Eurofins in the UK\n(§2) All compounds were prepared into a 100% DMSO solution and reached 50 times the final determined concentration. The test compound was diluted by 3 times the concentration gradient, and the final concentration was 10 μM to 0.001 μM, 9 concentrations in total, and the content of DMSO in the detection reaction was 2%. The working stock solution of the compound was added to a determination hole as the first component of the reaction, and then the remaining components were added according to the detailed scheme determination below.\n(§3) Mg/ATP mixture was added to start the reaction. After incubation at room temperature for 40 minutes, 0.5% phosphoric acid was added to stop the reaction."}, "[3]": {"biological_target": "JAK1 (Homo sapiens (Human), UniProt P23458)", "sequence (P23458 whole entry)": "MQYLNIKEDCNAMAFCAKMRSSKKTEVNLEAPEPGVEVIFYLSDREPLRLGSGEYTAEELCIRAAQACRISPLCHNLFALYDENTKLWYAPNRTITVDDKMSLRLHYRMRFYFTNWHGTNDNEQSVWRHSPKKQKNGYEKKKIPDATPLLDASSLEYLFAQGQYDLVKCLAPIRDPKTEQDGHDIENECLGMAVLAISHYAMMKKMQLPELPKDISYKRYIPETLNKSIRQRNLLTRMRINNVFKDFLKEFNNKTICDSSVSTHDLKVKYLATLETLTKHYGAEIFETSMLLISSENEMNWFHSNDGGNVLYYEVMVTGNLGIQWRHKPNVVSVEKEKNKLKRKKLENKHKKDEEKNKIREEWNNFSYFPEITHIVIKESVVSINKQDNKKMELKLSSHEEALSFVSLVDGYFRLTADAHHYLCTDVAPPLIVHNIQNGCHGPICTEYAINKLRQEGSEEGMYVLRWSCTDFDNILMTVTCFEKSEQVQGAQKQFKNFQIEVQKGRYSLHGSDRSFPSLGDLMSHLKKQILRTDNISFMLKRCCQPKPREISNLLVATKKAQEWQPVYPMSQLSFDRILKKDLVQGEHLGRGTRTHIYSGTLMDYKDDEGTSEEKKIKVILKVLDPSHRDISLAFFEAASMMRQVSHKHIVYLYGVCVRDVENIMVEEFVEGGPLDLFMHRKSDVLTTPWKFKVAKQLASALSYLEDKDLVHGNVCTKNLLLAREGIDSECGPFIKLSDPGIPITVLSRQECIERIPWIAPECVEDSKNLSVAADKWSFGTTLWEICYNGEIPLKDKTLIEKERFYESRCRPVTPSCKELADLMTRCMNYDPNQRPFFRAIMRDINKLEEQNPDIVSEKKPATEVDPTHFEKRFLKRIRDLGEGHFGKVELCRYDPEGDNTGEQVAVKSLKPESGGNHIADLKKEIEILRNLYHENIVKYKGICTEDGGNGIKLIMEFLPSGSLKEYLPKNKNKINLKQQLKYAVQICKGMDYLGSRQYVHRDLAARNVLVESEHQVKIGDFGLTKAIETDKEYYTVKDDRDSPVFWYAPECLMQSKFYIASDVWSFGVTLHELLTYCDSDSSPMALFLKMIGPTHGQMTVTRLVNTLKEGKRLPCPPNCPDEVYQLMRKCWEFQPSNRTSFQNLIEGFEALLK", "test": "In vitro activity test of JAK1 kinase", "type": "biochemical", "description": "as §1, §2, §3"}, "[4]": {"biological_target": "JAK3 (Homo sapiens (Human), UniProt P52333)", "sequence (P52333 whole entry)": "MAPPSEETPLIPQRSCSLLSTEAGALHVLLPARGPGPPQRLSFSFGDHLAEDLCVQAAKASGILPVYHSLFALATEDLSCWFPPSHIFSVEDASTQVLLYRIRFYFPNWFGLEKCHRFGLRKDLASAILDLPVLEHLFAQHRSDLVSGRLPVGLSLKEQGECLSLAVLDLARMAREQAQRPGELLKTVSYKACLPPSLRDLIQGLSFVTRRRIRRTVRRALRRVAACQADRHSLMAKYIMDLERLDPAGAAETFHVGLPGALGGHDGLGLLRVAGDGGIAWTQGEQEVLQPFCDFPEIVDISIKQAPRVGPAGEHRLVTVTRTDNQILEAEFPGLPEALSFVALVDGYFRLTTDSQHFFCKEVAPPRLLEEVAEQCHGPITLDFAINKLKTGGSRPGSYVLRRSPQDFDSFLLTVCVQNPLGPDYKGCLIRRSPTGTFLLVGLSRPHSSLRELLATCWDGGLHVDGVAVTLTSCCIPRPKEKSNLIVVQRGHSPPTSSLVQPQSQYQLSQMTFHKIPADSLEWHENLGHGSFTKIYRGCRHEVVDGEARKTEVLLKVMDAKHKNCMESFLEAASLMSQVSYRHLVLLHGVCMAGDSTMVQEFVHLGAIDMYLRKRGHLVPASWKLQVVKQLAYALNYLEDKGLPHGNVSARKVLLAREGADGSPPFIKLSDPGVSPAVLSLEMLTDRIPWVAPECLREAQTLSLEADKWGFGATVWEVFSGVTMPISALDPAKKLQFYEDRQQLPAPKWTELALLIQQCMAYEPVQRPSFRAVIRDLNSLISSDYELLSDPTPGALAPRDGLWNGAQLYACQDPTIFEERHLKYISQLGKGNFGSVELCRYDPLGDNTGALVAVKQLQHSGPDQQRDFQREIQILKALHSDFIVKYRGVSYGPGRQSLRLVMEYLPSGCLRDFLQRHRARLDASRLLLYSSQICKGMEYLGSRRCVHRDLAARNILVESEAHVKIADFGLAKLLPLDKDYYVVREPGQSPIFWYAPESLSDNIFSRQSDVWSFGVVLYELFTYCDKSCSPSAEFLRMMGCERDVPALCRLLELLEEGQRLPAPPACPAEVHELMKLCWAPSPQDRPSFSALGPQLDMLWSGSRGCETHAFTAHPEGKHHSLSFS", "test": "In vitro activity test of JAK3 kinase", "type": "biochemical", "description": "as §1, §2, §3"}, "[5]": {"system": "DSS induced ulcerative colitis and Crohn's disease in mice", "test": "In vivo pharmacodynamic study on DSS induced inflammatory bowel disease (IBD) in mice", "design": "species or system mice (C57BL/6); Colon length: unit not given here", "text": "Inflammatory bowl disease (IBD) is a kind of recurrent disease. It is difficult to cure, has a high recurrence rate, and has a poor prognosis, it has a certain correlation with the incidence of colon cancer. The development of drugs for the treatment of IBD will help alleviate the symptoms of ulcerative colitis and Crohn's disease and improve the quality of life of patients. The mouse inflammation model induced by dextran sulfate sodium (DSS) is similar to the human disease ulcerative colitis and Crohn's disease. It is a common classical model for preclinical evaluation of drug efficacy.\nPreparation method of DSS: 20 g DSS was weighed, 1000 mL drinking water was added to form 2% DSS solution, and stored in a 4° C. refrigerator. It is effective within one month.\nPreparation method of a solvent: Vehicle solution is an aqueous solution containing 0.5% methylcellulose and 0.5% Tween 80. Firstly, 5 g of methylcellulose was dissolved in 990 mL of pure water, then 5 g of Tween 80 was added in small amount for many times, mixed evenly and stored at room temperature.\nPreparation method of compounds: the compound was weighed, an aqueous solution with a mass ratio of 0.5% methylcellulose+0.5% Tween 80 was added, and it was processed by ultrasonic until it was dissolved.\nThe adaptation period of the animals was 3 days. After adaptation, the animals were weighed every day. The blank group was given drinking water, and the other groups were given drinking water containing 2% DSS. The water volume was 5 mL/animal/day. The animals in the test drug group were administrated by gavage once a day. The blank group and […] group were given the same volume of vehicle, with the administration volume of 10 mL/kg. Every other day, the fecal viscosity was evaluated, feces were collected for fecal occult blood detection, and the disease activity index (DAI) score was calculated. DSS consumption was detected every day. Fresh DSS solution was replaced every two days. The dosing cycle was continuous intragastric administration for 7 days, followed by 4 days of drug withdrawal, followed by 7 days of continuous intragastric administration. Normal drinking water was changed when intragastric administration was stopped.\nDAI is the sum of the scores of body weight, fecal viscosity and fecal occult blood. Among them, the semi quantitative detection method of piramine cave was adopted for detecting fecal occult blood, including adding piramine cave to the sample first, then adding hydrogen peroxide and ethanol solution, and reading and scoring the color within 2 min. Immediately generating purple blue is marked as 4+, generating the purple blue within 10 s is marked as 3+, generating purple red within 1 min is marked as 2+, and gradually generating the purple red within 1-2 min is marked as 1+, and generating no color reaction of purple orchid or purple red within the reading time is recorded as negative (−). After the experiment, the colon and spleen were taken, and the length of colon and the weight of spleen were measured. The spleen index was the ratio of spleen weight to body weight."}, "[6]": {"conditions": "day 9, 30 mg/kg p.o. qd, Mean±SEM"}, "[7]": {"conditions": "day 15, 30 mg/kg p.o. qd, Mean±SEM"}, "[8]": {"conditions": "day 21 of administration, 30 mg/kg p.o."}, "[9]": {"conditions": "day 2, 30 mg/kg p.o. qd, Mean±SEM"}, "[10]": {"conditions": "day 4, 30 mg/kg p.o. qd, Mean±SEM"}, "[11]": {"conditions": "day 6, 30 mg/kg p.o. qd, Mean±SEM"}, "[12]": {"conditions": "day 8, 30 mg/kg p.o. qd, Mean±SEM"}, "[13]": {"conditions": "day 12, 30 mg/kg p.o. qd, Mean±SEM"}, "[14]": {"conditions": "day 14, 30 mg/kg p.o. qd, Mean±SEM"}, "[15]": {"conditions": "day 16, 30 mg/kg p.o. qd, Mean±SEM"}, "[16]": {"conditions": "day 18, 30 mg/kg p.o. qd, Mean±SEM"}},
  "note": "Entries after “also recorded” stand apart in the source; their conditions may differ.",
  "data": [
    {"smiles": "O=C(Nc1nc2cccc(C3CCC4(CC3)CN(C(=O)[C@@H]3CC3(F)F)C4)n2n1)C1CC1", "note": "[Compound 1-13]", "values": [
      {"measurement": "Effect on treating allergic dermatitis (in words)", "setting": "[1]; 30 mg/kg p.o. qd, DNCB mice", "result": "good disease treatment effect; also recorded: significant effect"},
      {"measurement": "Thickness of the right ear after drug intervention (in words)", "setting": "[1]; 30 mg/kg p.o., vs DNCB group", "result": "significantly decreased"},
      {"measurement": "Thickness of the right ear", "setting": "[1]; after the experiment, 30 mg/kg p.o. qd, 28 days, Mean±SEM", "result": "0.232 ± 0.004"},
      {"measurement": "Skin score", "setting": "[1]; day 3, 30 mg/kg p.o. qd from day 4, Mean±SEM", "result": "0.5 ± 0.5"},
      {"measurement": "Skin score", "setting": "[1]; [6]", "result": "3.9 ± 1.6"},
      {"measurement": "Skin score", "setting": "[1]; [7]", "result": "3.7 ± 0.6"},
      {"measurement": "Skin score", "setting": "[1]; day 21, 30 mg/kg p.o. qd, Mean±SEM", "result": "5.0 ± 1.0"},
      {"measurement": "Effect on skin score compared with positive drug Alonson", "setting": "[1]; [8]", "result": "better effect"},
      {"measurement": "Skin score compared with DNCB group (in words)", "setting": "[1]; [8]", "result": "significantly decreased"},
      {"measurement": "Skin score", "setting": "[1]; day 27, 30 mg/kg p.o. qd, Mean±SEM", "result": "1.5 ± 0.5"},
      {"measurement": "Skin score compared with DNCB group (in words)", "setting": "[1]; day 27 of administration, 30 mg/kg p.o.", "result": "significant reduction"}
    ]},
    {"smiles": "N#CCCN1CC2(CCC(c3cccc4nc(NC(=O)C5CC5)nn34)CC2)C1", "note": "[Compound 1-17]", "values": [
      {"measurement": "IC50", "setting": "[2]", "result": 371, "unit": "nM"},
      {"measurement": "IC50", "setting": "[3]", "result": 65, "unit": "nM"},
      {"measurement": "IC50", "setting": "[4]", "result": "> 10", "unit": "µM"}
    ]},
    {"smiles": "O=C(Nc1nc2cccc([C@@H]3CCC4(C3)CN(C(=O)[C@@H]3CC3(F)F)C4)n2n1)C1CC1", "note": "[Compound 7-8]", "values": [
      {"measurement": "IC50", "setting": "[2]", "result": 404, "unit": "nM"},
      {"measurement": "IC50", "setting": "[3]", "result": 176, "unit": "nM"},
      {"measurement": "IC50", "setting": "[4]", "result": "> 10", "unit": "µM"}
    ]},
    {"smiles": "O=C(Nc1nc2cccc(-c3ccc(CN4CCS(=O)(=O)CC4)cc3)n2n1)C1CC1", "note": "[Filgotinib, reference compound]", "values": [
      {"measurement": "Colon shortening caused by DSS, compared with DSS group (in words)", "setting": "[5]; 30 mg/kg p.o.", "result": "can reduce colon shortening"},
      {"measurement": "Increase of spleen index induced by DSS (in words)", "setting": "[5]; 30 mg/kg p.o.", "result": "could reduce the increase of spleen index"},
      {"measurement": "Significance of inhibition of spleen index increase", "setting": "[5]; 30 mg/kg p.o., vs DSS group", "result": "significant inhibitory effect"},
      {"measurement": "Colon length", "setting": "[5]; after the experiment, 30 mg/kg p.o. qd, Mean±SEM", "result": "3.13 ± 0.10"},
      {"measurement": "Weight of mice", "setting": "[5]; day 1, 30 mg/kg p.o. qd, Mean±SEM", "result": "22.10 ± 0.42"},
      {"measurement": "DAI score", "setting": "[5]; [9]", "result": "1.20 ± 0.42"},
      {"measurement": "Weight of mice", "setting": "[5]; [9]", "result": "22.35 ± 0.41"},
      {"measurement": "Weight of mice", "setting": "[5]; day 3, 30 mg/kg p.o. qd, Mean±SEM", "result": "22.11 ± 0.31"},
      {"measurement": "DAI score", "setting": "[5]; [10]", "result": "2.20 ± 0.61"},
      {"measurement": "Weight of mice", "setting": "[5]; [10]", "result": "22.07 ± 0.38"},
      {"measurement": "Weight of mice", "setting": "[5]; day 5, 30 mg/kg p.o. qd, Mean±SEM", "result": "21.61 ± 0.47"},
      {"measurement": "DAI score", "setting": "[5]; [11]", "result": "2.90 ± 0.43"},
      {"measurement": "Weight of mice", "setting": "[5]; [11]", "result": "21.21 ± 0.55"},
      {"measurement": "Weight of mice", "setting": "[5]; day 7, 30 mg/kg p.o. qd, Mean±SEM", "result": "20.28 ± 0.47"},
      {"measurement": "DAI score", "setting": "[5]; [12]", "result": "6.40 ± 0.69"},
      {"measurement": "Weight of mice", "setting": "[5]; [12]", "result": "19.65 ± 0.47"},
      {"measurement": "Weight of mice", "setting": "[5]; [6]", "result": "18.57 ± 0.49"},
      {"measurement": "Weight of mice", "setting": "[5]; day 10, 30 mg/kg p.o. qd, Mean±SEM", "result": "17.98 ± 0.62"},
      {"measurement": "Weight of mice", "setting": "[5]; day 11, 30 mg/kg p.o. qd, Mean±SEM", "result": "17.85 ± 0.80"},
      {"measurement": "DAI score", "setting": "[5]; [13]", "result": "3.56 ± 0.82"},
      {"measurement": "Weight of mice", "setting": "[5]; [13]", "result": "18.27 ± 0.91"},
      {"measurement": "Weight of mice", "setting": "[5]; day 13, 30 mg/kg p.o. qd, Mean±SEM", "result": "19.21 ± 0.94"},
      {"measurement": "DAI score", "setting": "[5]; [14]", "result": "3.00 ± 0.57"},
      {"measurement": "Weight of mice", "setting": "[5]; [14]", "result": "20.16 ± 0.61"},
      {"measurement": "Weight of mice", "setting": "[5]; [7]", "result": "21.11 ± 0.58"},
      {"measurement": "DAI score", "setting": "[5]; [15]", "result": "3.00 ± 0.96"},
      {"measurement": "Weight of mice", "setting": "[5]; [15]", "result": "21.09 ± 0.53"},
      {"measurement": "Weight of mice", "setting": "[5]; day 17, 30 mg/kg p.o. qd, Mean±SEM", "result": "20.58 ± 0.38"},
      {"measurement": "DAI score", "setting": "[5]; [16]", "result": "3.52 ± 0.73"},
      {"measurement": "Weight of mice", "setting": "[5]; [16]", "result": "19.59 ± 0.34"},
      {"measurement": "Spleen index", "setting": "[5]; ratio of spleen weight to body weight, 30 mg/kg p.o. qd, Mean±SEM", "result": "4.04 ± 0.18"}
    ]}
  ]
}
